Test system: KRAS-mutant PDC multicell tumor spheroid viability
Assay: Anticancer human tumor 521955-158-R2-J5-PDC patient-derived pancreatic carcinoma cell line growth inhibition [KRAS2]
Details: for IC50: curve of first compound; for viability, T/C: stronger effect = lower value
Text: Multicellular complex tumor spheroid response to RAS pathway inhibitors in combination with a targeted agents in patient-derived cell lines with oncogenic KRAS variants from multiple cancer types
A high-throughput screen of multi-cell type tumor spheroids was designed to identify active combinations of targeted small molecules and KRAS pathway inhibitors. Complex spheroids include a stromal component modeled by human endothelial cells (HUVEC) and fibroblasts modeled by human mesenchymal stem cells (MSCs). The concentration ranges selected for each drug and investigational agent were based upon clinically achievable concentrations if the clinical Cmax of the agent was known.
Compounds. The drugs and investigational agents: BI-3406 (NSC825286), BAY-293 (NSC824723), batoprotafib (TNO155; NSC825523), sotorasib (AMG 510; NSC818433), MRTX1257 (NSC819558), elimusertib (BAY 1895344; NSC800525), molibresib (GSK525762; NSC774829), temuterkib (LY3214996; NSC803410), venetoclax (NSC766270), alisertib (NSC759677), olaparib (NSC753686), talazoparib (NSC767125), erdafitinib (NSC781556), ipatasertib (NSC767898), cabozantinib (NSC761068), nintedanib (NSC756659), abemaciclib (NSC768073), docetaxel (NSC628503), trametinib (NSC758246), and sapanisertib (NSC764658) were obtained from the National Cancer Institute (NCI) Developmental Therapeutics Program Chemical Repository. The FDA-approved anticancer drug set is available from the Developmental Therapeutics Program. […] The stock solutions were prepared in dimethyl sulfoxide (DMSO, Sigma-Aldrich, St. Louis, MO, cat. D2650) at 800-fold the tested concentration and stored at -70 degrees C prior to their use. All drugs and investigational agents were tested over a range starting from a high concentration at or near the clinical Cmax and decreasing in half-log increments. If the clinical Cmax for an agent had not been determined, the highest concentration tested was 10 microM.
Cell Culture. All cells were maintained in an incubator at 37 degrees C and 5% CO2 with 95% humidity. The PDC lines were cultured according to standard operating procedures established by the NCI PDMR (https://pdmr.cancer.gov/sops/default.htm). Briefly, all PDCs were thawed and cultured in Matrigel-coated flasks prepared with a working solution of 1X Ham's F-12 nutrient mix, without supplementation (Invitrogen, Waltham, MA, cat. 11765054), 100 U/mL penicillin-streptomycin (Invitrogen, cat. 15140122), and 2.5% Matrigel (Corning Inc., Corning, NY, cat. 354248) for the first three passages. All PDCs were cultured in complete DMEM/F-12 media containing advanced DMEM/F-12 (Invitrogen, cat. 12634028), 4.9% defined fetal bovine serum, heat inactivated (HyClone Laboratories Inc., Logan, UT, cat. SH30070.03HI), 389 ng/mL hydrocortisone (Sigma-Aldrich, cat. H4001), 9.7 ng/mL human EGF recombinant protein (Invitrogen, cat. PHG0313), 23.4 microg/mL adenine (Sigma-Aldrich, cat. A2786), 97.3 U/mL penicillin-streptomycin (Invitrogen, cat. 15140122), 1.9 mM L-glutamine (Invitrogen, cat. 25030081), and 9.7 microM Y-27632 dihydrochloride (Tocris Bioscience, Bristol, United Kingdom, cat. 1254). The PDCs were cultured in complete DMEM/F12 media without 9.7 microM Y-27632 dihydrochloride for at least two passages prior to the screen. The established cell line HOP-62 was cultured in RPMI 1640 medium, HEPES (Invitrogen, cat. 22400105) with 10% defined fetal bovine serum (HyClone Laboratories Inc., cat. SH30070.03) and 2 mM L-glutamine (Invitrogen, cat. 25030081). The pooled donor HUVEC were cultured in endothelial cell growth medium 2 (PromoCell, Heidelberg, Germany, cat. C-22011) and the hMSC were cultured in mesenchymal stem cell growth medium 2 (PromoCell, cat. C-28009). For all experiments, HUVEC and hMSC were used at passages </=5, while the malignant cell lines were used at passages </=15. […]

[1] = second compound 0.1 µM, first compound 0.0316 µM
[2] = second compound 0.1 µM, first compound 0.1 µM
[3] = second compound 0.316 µM, first compound 0.0316 µM
[4] = second compound 0.316 µM, first compound 0.1 µM
[5] = second compound 1 µM, first compound 0.0316 µM
[6] = second compound 1 µM, first compound 0.1 µM
[7] = second compound 3.16 µM, first compound 0.0316 µM
[8] = second compound 3.16 µM, first compound 0.1 µM
[9] = second compound 10 µM, first compound 0.1 µM
[10] = second compound 0.1 µM, first compound 0.316 µM
[11] = second compound 0.1 µM, first compound 1 µM
[12] = second compound 0.1 µM, first compound 3.16 µM
[13] = second compound 0.1 µM, first compound 10 µM
[14] = second compound 0.316 µM, first compound 0.316 µM
[15] = second compound 0.316 µM, first compound 1 µM
[16] = second compound 0.316 µM, first compound 3.16 µM
[17] = second compound 0.316 µM, first compound 10 µM
[18] = second compound 1 µM, first compound 0.316 µM
[19] = second compound 1 µM, first compound 1 µM
[20] = second compound 1 µM, first compound 3.16 µM
[21] = second compound 1 µM, first compound 10 µM
[22] = second compound 3.16 µM, first compound 0.316 µM
[23] = second compound 3.16 µM, first compound 1 µM
[24] = second compound 3.16 µM, first compound 3.16 µM
[25] = second compound 3.16 µM, first compound 10 µM
[26] = second compound 10 µM, first compound 0.0316 µM
[27] = second compound 10 µM, first compound 0.316 µM
[28] = second compound 10 µM, first compound 1 µM
[29] = second compound 10 µM, first compound 3.16 µM
[30] = second compound 10 µM, first compound 10 µM
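Also: viability read after seven days of drug exposure.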

Structure (SMILES)	IC50 (second compound 0.1 µM)	IC50 (second compound 0.316 µM)	IC50 (second compound 1 µM)	IC50 (second compound 3.16 µM)	IC50 (second compound 10 µM)	viability, T/C [1]	viability, T/C [2]	viability, T/C [3]	viability, T/C [4]	viability, T/C [5]	viability, T/C [6]	viability, T/C [7]	viability, T/C [8]	viability, T/C [9]	viability, T/C [10]	viability, T/C [11]	viability, T/C [12]	viability, T/C [13]	viability, T/C [14]	viability, T/C [15]	also measured
CC(C)n1nc(-c2ccc3oc(N)nc3c2)c2c(N)ncnc21 + C=CC(=O)N1CCN(c2nc(=O)n(-c3c(C)ccnc3C(C)C)c3nc(-c4c(O)cccc4F)c(F)cc23)C(C)C1	0.00961 µM	0.0075 µM	0.00719 µM	0.00343 µM	0.000703 µM	36.7%	27.2%	35.5%	26.9%	36.6%	24%	26.9%	23.1%	18.8%	–	–	–	–	–	–	viability, T/C (second compound 0.1 µM, first compound 0.000316 µM): 110%; viability, T/C (second compound 0.1 µM, first compound 0.001 µM): 97.8%; viability, T/C (second compound 0.1 µM, first compound 0.00316 µM): 63.6%; viability, T/C (second compound 0.1 µM, first compound 0.01 µM): 52.8%; viability, T/C (second compound 0.316 µM, first compound 0.000316 µM): 117%; viability, T/C (second compound 0.316 µM, first compound 0.001 µM): 98.1%; viability, T/C (second compound 0.316 µM, first compound 0.00316 µM): 65.5%; viability, T/C (second compound 0.316 µM, first compound 0.01 µM): 44.6%; viability, T/C (second compound 1 µM, first compound 0.000316 µM): 117%; viability, T/C (second compound 1 µM, first compound 0.001 µM): 102%; viability, T/C (second compound 1 µM, first compound 0.00316 µM): 64.3%; viability, T/C (second compound 1 µM, first compound 0.01 µM): 43.8%; viability, T/C (second compound 3.16 µM, first compound 0.000316 µM): 91.7%; viability, T/C (second compound 3.16 µM, first compound 0.001 µM): 79.7%; viability, T/C (second compound 3.16 µM, first compound 0.00316 µM): 51.9%; viability, T/C (second compound 3.16 µM, first compound 0.01 µM): 29.7%; viability, T/C (second compound 10 µM, first compound 0.000316 µM): 58.1%; viability, T/C (second compound 10 µM, first compound 0.001 µM): 46.9%; viability, T/C (second compound 10 µM, first compound 0.00316 µM): 32.5%; viability, T/C (second compound 10 µM, first compound 0.01 µM): 25.7%
CC1(C)CCC(CN2CCN(c3ccc(C(=O)NS(=O)(=O)c4ccc(NCC5CCOCC5)c([N+](=O)[O-])c4)c(Oc4cnc5[nH]ccc5c4)c3)CC2)=C(c2ccc(Cl)cc2)C1 + C=CC(=O)N1CCN(c2nc(=O)n(-c3c(C)ccnc3C(C)C)c3nc(-c4c(O)cccc4F)c(F)cc23)C(C)C1	5.91 µM	5.02 µM	3.69 µM	3.46 µM	1.94 µM	100%	116%	96%	110%	114%	104%	90.9%	102%	68.8%	106%	109%	92.3%	14.3%	106%	112%	viability, T/C [16]: 76.1%; viability, T/C [17]: 11.1%; viability, T/C [18]: 113%; viability, T/C [19]: 111%; viability, T/C [20]: 56%; viability, T/C [21]: 10.2%; viability, T/C [22]: 92.4%; viability, T/C [23]: 86.9%; viability, T/C [24]: 52.3%; viability, T/C [25]: 22.5%; viability, T/C [26]: 75.9%; viability, T/C [27]: 72.9%; viability, T/C [28]: 61.9%; viability, T/C [29]: 40.9%; viability, T/C [30]: 13.3%
COc1cc2nccc(Oc3ccc(NC(=O)C4(C(=O)Nc5ccc(F)cc5)CC4)cc3)c2cc1OC + C=CC(=O)N1CCN(c2nc(=O)n(-c3c(C)ccnc3C(C)C)c3nc(-c4c(O)cccc4F)c(F)cc23)C(C)C1	6.55 µM	5.78 µM	3.98 µM	2.5 µM	1.24 µM	114%	122%	107%	111%	109%	119%	83.7%	109%	64.1%	113%	124%	78.4%	33.5%	117%	108%	viability, T/C [16]: 66.8%; viability, T/C [17]: 34.7%; viability, T/C [18]: 114%; viability, T/C [19]: 112%; viability, T/C [20]: 54.2%; viability, T/C [21]: 32.9%; viability, T/C [22]: 94.4%; viability, T/C [23]: 75.4%; viability, T/C [24]: 44.2%; viability, T/C [25]: 20.9%; viability, T/C [26]: 55.2%; viability, T/C [27]: 58.7%; viability, T/C [28]: 53.9%; viability, T/C [29]: 32.6%; viability, T/C [30]: 10.4%
